Data from US20250041461A1, “[177LU] LUTETIUM-PSMA I&T COMPOSITION AND DOSIMETRY, KIT, METHOD OF MAKING, AND METHOD OF USING THEREOF” (Curium US LLC, priority 2023, published 2025).
“And” between values parts separate entries of the source, which are not always exact repeats. Identical values can stand only once.

Experiments:
[1] = Eclipse sub-study, cycle 3 dosimetry (16 patients); assay type: in vivo, human; conditions: cycle 3, 16 patients
Method: To evaluate potential changes in the tracer's kinetics and uptake after multiple treatment cycles, 16 of the 27 patients included in the dosimetry sub study, were imaged at both cycle 1 and cycle 3. Among these, at cycle 3, three patients were imaged at all 4 timepoints and the other 13 were imaged at one or two timepoints only (24 h, 48 h or both 24 h and 48 h) (Table 7 in Appendix 1). For these 13 patients, the TACs obtained at cycle 1 were used for each source organ and scaled to the normalized activity value(s) measured at Cycle 3. For patients imaged at two timepoints, the TACs were preferably scaled using the average scaling factor between the two timepoints.
A subgroup of 16 out of the 27 patients underwent and additional dosimetry assessment at Cycle 3. Among these, three patients had dosimetry performed based on images taken at 4 timepoints, while the remaining patients had dosimetry performed at 1 or 2 imaging timepoints only, as described in Section 4.4.1.
The organ absorbed radiation doses were compared to the mean organ absorbed radiation doses from Cycle 1 for the same subset of patients, as shown in Table 5. The dosimetry estimations obtained at cycle 3 align closely with those from cycle 1. At this timepoint, the kidneys had the highest dose (0.49±0.19 Gy/GBq) but, for most organs, the estimated absorbed dose values were similar to or lower compared to cycle 1. […]

[2] = Plasma PK modelling (gamma counting, bi-exponential fit), cycles 1 and 3; assay type: in vivo, human
Method: PK plasma samples were collected at pre-Infusion, 1 h, 4 h, 24 h, 48 h, and 168 h, and counted for radioactivity. Blood samples were first centrifuged to extract plasma, and then the radioactivity in plasma was counted in a gamma counter.
Whole blood samples were collected as detailed in the protocol Schedule of Events i.e. pre-injection, and then at 1 h, 4 h, 24 h, 48 h, and 168 h post-injection. The samples were first centrifuged to separate plasma, and the radioactivity in the plasma was then measured using a gamma counter. Plasma concentrations were subsequently fitted with a bi-exponential function to derive outcome parameters such as the half-life and clearance rate of the radiopharmaceutical in the plasma.
Gamma-counted plasma samples were quality controlled using the same ^177Lu reference standard by measuring 0.5 ml of the 100 mL in the saline bag. For each patient, triplicates were made and measured right before all plasma samples were counted. A long-lived isotope was also counted to ensure that the protocol was properly followed by each site. Similarly to the imaging standard, when the gamma counter efficiency factor differed by more than 10% compared to that at site set-up, an investigation was launched to determine the cause of this variation, and if it reflected a difference in data acquisition.
Plasma data was fitted with a bi-exponential curve.
Blood samples were obtained for 15 out of 16 patients at cycle 3. Patients 12-004 had blood taken only at the 24 h timepoint and, therefore, was not included in the plasma PK analysis. Consistent with Cycle 1, the time-course of plasma concentrations was similar among the patients. The ranges of PK parameters obtained at cycle 3 were similar to those from Cycle 1 data (Table 6). Cycle 3 PK plasma modeling results (n=15)

[3] = Example 10 dosimetry, 27 mCRPC patients, planar whole-body conjugate imaging and SPECT/CT, MIRD method; assay type: in vivo, human
Method: Radiation dosimetry of [^177Lu]Lu-PSMA-I&T was calculated in 27 patients with mCRPC based on biodistribution data from planar whole-body conjugate imaging at 1, 24, 48, 72, and 168 hours and, for 7 of them, SPECT/CT imaging at 48-72 hours post injection of their first cycle of [^177Lu]Lu-PSMA-I&T (6.8±10% GBq).
Regions of interest were drawn on the planar images.
Volumes of interest were constructed on the SPECT and CT
For each subject, kinetic data were modeled to determine
normalized number of disintegrations in organs and tissues, from which the absorbed dose estimates were computed using the MIRD method.

prostate cancer = conditions: in vivo; cited from earlier work
[4] = numerous studies; cited from earlier work
[5] = Cycle 1, patient 42-030 excluded
[6] = 27 patients, first cycle, 6.8 GBq, planar imaging
[7] = Bladder Wall, 27 patients, first cycle
[8] = Heart Wall, 27 patients, first cycle
[9] = Kidneys, 27 patients, first cycle
[10] = Lacrimal Glands, 27 patients, first cycle
[11] = Left Colon, 27 patients, first cycle
[12] = Liver, 27 patients, first cycle
[13] = Red Marrow, 27 patients, first cycle
[14] = Salivary Glands, 27 patients, first cycle
[15] = Spleen, 27 patients, first cycle
[16] = Thyroid, 27 patients, first cycle
[17] = cumulative administered activity of 27.2 GBq, four cycles of 6.8 GBq

O=C([O-])CC[C@H](NC(=O)N[C@@H](CCCCNC(=O)CCCCCCC(=O)NCCCC[C@@H](NC(=O)[C@@H](Cc1ccccc1)NC(=O)[C@@H](Cc1ccc(O)c(I)c1)NC(=O)CC[C@H](C(=O)[O-])N1CCN(CC(=O)[O-])CCN(CC(=O)[O-])CCN(CC(=O)[O-])CC1)C(=O)[O-])C(=O)[O-])C(=O)[O-].[177Lu+3].[H+].[H+].[H+].[H+].[H+] [^177Lu-PSMA I&T, (3S,7S,26R,29R,32R,37R)-29-benzyl-32-(4-hydroxy-3-iodobenzyl)-5,13,20,28,31,34-hexaoxo-37-(4,7,10-tris(carboxymethyl)-1,4,7,10-tetraazacyclododecan-1-yl)-4,6,12,21,27,30,33-heptaazaheptatriacontane-1,3,7,26,37-pentacarboxylic acid; lutetium-177 (III)]
absorbed dose, kidneys [1]: 0.49±0.19 Gy/GBq
Peak Concentration Value ([2]; Cycle 1, individual patients): 0.05 fIA/L (4×) and 0.04 fIA/L and 0.03 fIA/L
Time of Peak Concentration ([2]; Cycle 1, individual patients, time of first post-administration sample): 56.00 min and 47.00 min and 53.00 min and 60.00 min (6×) and 51.00 min (2×) and 58.00 min and 61.00 min (2×) and 50.00 min and 63.00 min and 57.00 min and 55.00 min and 52.00 min (2×) and 68.00 min and 71.00 min and 65.00 min and 33.00 min and 40.00 min and 69.00 min
AUC Total, Mean [2, 5]: 22.77 fIA/L × min
AUC Total, max [2, 5]: 37.86 fIA/L × min
AUC Total, median [2, 5]: 20.84 fIA/L × min
AUC Total, min [2, 5]: 3.07 fIA/L × min
Peak Concentration Value, Mean [2, 5]: 0.04 fIA/L
Peak Concentration Value, max [2, 5]: 0.07 fIA/L
Peak Concentration Value, median [2, 5]: 0.04 fIA/L
Peak Concentration Value, min [2, 5]: 0.01 fIA/L
Time of Peak Concentration [2, 5]: 33.00 min
Time of Peak Concentration, median [2, 5]: 59.00 min
Vd, Mean [2, 5]: 234.64 L
Vd, max [2, 5]: 1365.03 L
Vd, median [2, 5]: 157.12 L
Vd, min [2, 5]: 54.60 L
Time of Peak Concentration ([2]; cycle 3, max (n=15)): 68.00 min
Time of Peak Concentration ([2]; cycle 3, median (n=15)): 60.00 min
Time of Peak Concentration ([2]; cycle 3, min (n=15)): 55.00 min
absorbed dose, kidneys [3, 6]: 0.73 Gy/GBq
absorbed dose, lacrimal glands [3, 6]: 1.2 Gy/GBq
average dose, red marrow [3, 6]: 0.034 Gy/GBq
average dose, salivary glands [3, 6]: 0.34 Gy/GBq
dose estimate, Max [3, 7]: 0.36 mGy/MBq or Gy/GBq
dose estimate, Mean [3, 7]: 0.33 mGy/MBq or Gy/GBq
dose estimate, Min [3, 7]: 0.14 mGy/MBq or Gy/GBq
Absorbed Dose, Mean ([3]; Bladder, SPLASH): 0.33 Gy/GBq
Absorbed Dose, Mean ([3]; Bone Marrow, SPLASH): 0.034 Gy/GBq
dose estimate, Max [3, 8]: 0.15 mGy/MBq or Gy/GBq
dose estimate, Mean [3, 8]: 0.036 mGy/MBq or Gy/GBq
dose estimate, Min [3, 8]: 0.017 mGy/MBq or Gy/GBq
dose estimate, Mean ([3]; Heart Wall, Splash): 0.04 Gy/GBq
Absorbed Dose, Mean ([3]; Heart, SPLASH): 0.036 Gy/GBq
dose estimate, Max [3, 9]: 1.8 mGy/MBq or Gy/GBq
dose estimate, Mean [3, 9]: 0.73 mGy/MBq or Gy/GBq
dose estimate, Min [3, 9]: 0.22 mGy/MBq or Gy/GBq
Absorbed Dose, Mean ([3]; Kidneys, Splash): 0.73 Gy/GBq
dose estimate, Mean ([3]; Kidneys, Splash): 0.73 Gy/GBq
dose estimate, Max [3, 10]: 6.7 mGy/MBq or Gy/GBq
dose estimate, Mean [3, 10]: 1.2 mGy/MBq or Gy/GBq
dose estimate, Min [3, 10]: 0.38 mGy/MBq or Gy/GBq
Absorbed Dose, Mean ([3]; Lacrimal Glands, SPLASH): 1.2 Gy/GBq
dose estimate, Mean ([3]; Lacrimal gland, Splash): 1.20 Gy/GBq
dose estimate, Max [3, 11]: 1.5 mGy/MBq or Gy/GBq
dose estimate, Mean [3, 11]: 0.52 mGy/MBq or Gy/GBq
dose estimate, Min [3, 11]: 0.013 mGy/MBq or Gy/GBq
Absorbed Dose, Mean ([3]; Left colon, Splash): 0.52 Gy/GBq
dose estimate, Mean ([3]; Left colon, Splash): 0.52 Gy/GBq
dose estimate, Max [3, 12]: 0.24 mGy/MBq or Gy/GBq
dose estimate, Mean [3, 12]: 0.051 mGy/MBq or Gy/GBq
dose estimate, Min [3, 12]: 0.025 mGy/MBq or Gy/GBq
Absorbed Dose, Mean ([3]; Liver, Splash): 0.051 Gy/GBq
dose estimate, Mean ([3]; Liver, Splash): 0.051 Gy/GBq
dose estimate, Max [3, 13]: 0.11 mGy/MBq or Gy/GBq
dose estimate, Mean [3, 13]: 0.034 mGy/MBq or Gy/GBq
dose estimate, Min [3, 13]: 0.014 mGy/MBq or Gy/GBq
dose estimate, Mean ([3]; Red Marrow, Splash): 0.03 Gy/GBq
dose estimate, Max [3, 14]: 1.5 mGy/MBq or Gy/GBq
dose estimate, Mean [3, 14]: 0.34 mGy/MBq or Gy/GBq
dose estimate, Min [3, 14]: 0.14 mGy/MBq or Gy/GBq
Absorbed Dose, Mean ([3]; Salivary glands, Splash): 0.34 Gy/GBq
dose estimate, Mean ([3]; Salivary glands, Splash): 0.34 Gy/GBq
dose estimate, Max [3, 15]: 0.80 mGy/MBq or Gy/GBq
dose estimate, Mean [3, 15]: 0.16 mGy/MBq or Gy/GBq
dose estimate, Min [3, 15]: 0.022 mGy/MBq or Gy/GBq
Absorbed Dose, Mean ([3]; Spleen, Splash): 0.16 Gy/GBq
dose estimate, Mean ([3]; Spleen, Splash): 0.16 Gy/GBq
dose estimate, Max [3, 16]: 0.77 mGy/MBq or Gy/GBq
dose estimate, Mean [3, 16]: 0.17 mGy/MBq or Gy/GBq
dose estimate, Min [3, 16]: 0.011 mGy/MBq or Gy/GBq
Absorbed Dose, Mean ([3]; Thyroid, Splash): 0.17 Gy/GBq
dose estimate, Mean ([3]; Thyroid, Splash): 0.17 Gy/GBq
dose estimate, Mean ([3]; Urinary bladder wall, Splash): 0.33 Gy/GBq
cumulative absorbed dose, kidneys [3, 17]: 19.9 Gy
cumulative absorbed dose, red marrow [3, 17]: 0.91 Gy
adverse effects (prostate cancer): mainly transient adverse effects
safety and tolerability [4]: safe and well tolerated
